Measured values as given in ChEMBL document CHEMBL4373740, “Synthesis and biological evaluation of new MET inhibitors with 1,6-naphthyridinone scaffold” (Eur J Med Chem, 2020).

What was measured:
[1] = target: Mitogen-activated protein kinase 9 (Homo sapiens) (UniProt P45984); test: (§1) Inhibition of recombinant full length human His-tagged MAPK9 expressed in baculovirus expression system at 1 uM using biotin as substrate preincubated for 5 mins followed by substrate addition and measured after 30 to 60 mins in presence of ATP by HTRF assay relative to control
Sequence of Mitogen-activated protein kinase 9 (Homo sapiens) (P45984 whole entry, looked up): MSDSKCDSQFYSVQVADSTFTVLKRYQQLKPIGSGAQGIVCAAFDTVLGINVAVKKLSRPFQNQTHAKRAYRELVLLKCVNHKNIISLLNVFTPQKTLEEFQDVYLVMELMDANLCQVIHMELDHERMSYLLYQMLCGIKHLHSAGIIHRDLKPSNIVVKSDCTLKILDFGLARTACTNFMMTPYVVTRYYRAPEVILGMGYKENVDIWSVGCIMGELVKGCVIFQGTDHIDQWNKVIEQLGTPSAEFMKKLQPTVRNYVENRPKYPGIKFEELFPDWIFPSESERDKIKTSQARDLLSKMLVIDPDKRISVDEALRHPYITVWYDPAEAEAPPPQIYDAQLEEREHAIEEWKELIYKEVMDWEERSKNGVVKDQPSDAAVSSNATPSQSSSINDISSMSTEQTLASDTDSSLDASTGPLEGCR

[2] = target: Macrophage colony-stimulating factor 1 receptor (Homo sapiens) (UniProt P07333); test: Inhibition of recombinant full length human His-tagged CSF1R expressed in baculovirus expression system at 1 uM using biotin as substrate preincubated for 5 mins followed by substrate addition and measured after 30 to 60 mins in presence of ATP by HTRF assay relative to control
Sequence of Macrophage colony-stimulating factor 1 receptor (Homo sapiens) (P07333 whole entry, the tested form may be a part): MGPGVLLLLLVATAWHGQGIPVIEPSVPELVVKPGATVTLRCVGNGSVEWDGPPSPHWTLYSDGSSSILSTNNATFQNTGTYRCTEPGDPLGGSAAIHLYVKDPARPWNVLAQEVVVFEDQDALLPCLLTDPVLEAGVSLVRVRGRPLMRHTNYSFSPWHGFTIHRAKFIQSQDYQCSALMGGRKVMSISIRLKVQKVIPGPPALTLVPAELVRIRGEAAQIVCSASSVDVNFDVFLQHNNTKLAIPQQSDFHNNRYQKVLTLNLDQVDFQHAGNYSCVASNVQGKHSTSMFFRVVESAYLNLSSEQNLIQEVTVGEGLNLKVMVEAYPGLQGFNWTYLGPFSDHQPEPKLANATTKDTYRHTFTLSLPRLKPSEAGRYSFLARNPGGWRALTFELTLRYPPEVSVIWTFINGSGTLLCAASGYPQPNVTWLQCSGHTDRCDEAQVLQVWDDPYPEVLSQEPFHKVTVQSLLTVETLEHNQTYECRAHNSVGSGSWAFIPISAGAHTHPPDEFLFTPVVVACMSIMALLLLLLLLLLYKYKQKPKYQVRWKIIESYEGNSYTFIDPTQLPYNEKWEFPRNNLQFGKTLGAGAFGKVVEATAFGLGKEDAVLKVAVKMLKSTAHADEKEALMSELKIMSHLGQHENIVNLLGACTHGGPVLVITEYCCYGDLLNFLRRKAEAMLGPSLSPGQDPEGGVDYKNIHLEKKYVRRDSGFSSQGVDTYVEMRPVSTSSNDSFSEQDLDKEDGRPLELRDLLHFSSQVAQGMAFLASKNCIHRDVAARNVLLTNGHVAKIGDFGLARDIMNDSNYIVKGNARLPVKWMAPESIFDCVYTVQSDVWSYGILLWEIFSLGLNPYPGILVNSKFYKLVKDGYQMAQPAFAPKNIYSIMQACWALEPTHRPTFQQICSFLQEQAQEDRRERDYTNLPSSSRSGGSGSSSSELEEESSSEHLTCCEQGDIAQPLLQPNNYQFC

[3] = target: Hepatocyte growth factor receptor (Homo sapiens, UniProt P08581); test: Inhibition of purified recombinant MET kinase domain (unknown origin) using biotin as substrate preincubated for 5 mins followed by substrate addition and measured after 30 to 60 mins in presence of ATP by HTRF assay
Sequence of Hepatocyte growth factor receptor (P08581 whole entry, the tested form may be a part): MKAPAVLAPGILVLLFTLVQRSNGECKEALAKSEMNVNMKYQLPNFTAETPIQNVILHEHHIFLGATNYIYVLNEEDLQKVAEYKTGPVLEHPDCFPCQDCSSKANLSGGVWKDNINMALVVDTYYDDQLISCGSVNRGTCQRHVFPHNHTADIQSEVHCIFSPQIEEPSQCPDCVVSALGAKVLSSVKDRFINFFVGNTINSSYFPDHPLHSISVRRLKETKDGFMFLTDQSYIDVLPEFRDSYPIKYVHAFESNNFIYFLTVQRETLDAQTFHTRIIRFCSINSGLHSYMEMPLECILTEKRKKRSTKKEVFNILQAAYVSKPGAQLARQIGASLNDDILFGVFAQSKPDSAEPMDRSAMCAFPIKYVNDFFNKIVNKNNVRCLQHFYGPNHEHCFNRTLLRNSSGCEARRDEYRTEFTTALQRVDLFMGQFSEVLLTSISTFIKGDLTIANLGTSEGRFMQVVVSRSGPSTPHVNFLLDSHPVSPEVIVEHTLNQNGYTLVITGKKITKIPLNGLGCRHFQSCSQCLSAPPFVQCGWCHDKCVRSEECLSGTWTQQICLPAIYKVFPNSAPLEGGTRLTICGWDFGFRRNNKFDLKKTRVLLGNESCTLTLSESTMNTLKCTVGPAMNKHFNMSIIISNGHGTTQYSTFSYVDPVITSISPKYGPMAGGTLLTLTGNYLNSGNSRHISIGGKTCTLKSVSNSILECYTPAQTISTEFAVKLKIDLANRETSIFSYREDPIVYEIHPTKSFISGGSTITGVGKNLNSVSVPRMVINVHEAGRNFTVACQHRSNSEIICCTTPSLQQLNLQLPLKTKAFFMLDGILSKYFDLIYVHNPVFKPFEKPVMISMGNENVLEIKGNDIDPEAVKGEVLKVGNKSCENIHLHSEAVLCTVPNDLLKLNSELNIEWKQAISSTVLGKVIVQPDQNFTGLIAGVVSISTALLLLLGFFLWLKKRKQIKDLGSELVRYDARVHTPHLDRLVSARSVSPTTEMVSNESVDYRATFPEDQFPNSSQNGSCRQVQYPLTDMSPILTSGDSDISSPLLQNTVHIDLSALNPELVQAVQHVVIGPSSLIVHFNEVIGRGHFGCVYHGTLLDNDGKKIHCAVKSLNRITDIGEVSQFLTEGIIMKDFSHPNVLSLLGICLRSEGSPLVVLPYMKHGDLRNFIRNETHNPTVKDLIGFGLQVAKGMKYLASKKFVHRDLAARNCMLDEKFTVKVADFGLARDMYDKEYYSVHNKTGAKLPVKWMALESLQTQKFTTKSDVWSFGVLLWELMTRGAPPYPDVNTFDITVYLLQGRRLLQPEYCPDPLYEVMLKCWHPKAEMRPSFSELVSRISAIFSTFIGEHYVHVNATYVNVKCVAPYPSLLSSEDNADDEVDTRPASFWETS

[4] = target: Tyrosine-protein kinase JAK2 (Homo sapiens) (UniProt O60674); test: Inhibition of recombinant full length human GST-tagged JAK2 expressed in baculovirus expression system at 1 uM using biotin as substrate preincubated for 5 mins followed by substrate addition and measured after 30 to 60 mins in presence of ATP by HTRF assay relative to control
[5] = target: Receptor-type tyrosine-protein kinase FLT3 (Homo sapiens) (UniProt P36888); test: Inhibition of recombinant full length human His-tagged FLT3 expressed in baculovirus expression system at 1 uM using biotin as substrate preincubated for 5 mins followed by substrate addition and measured after 30 to 60 mins in presence of ATP by HTRF assay relative to control
Sequence of Receptor-type tyrosine-protein kinase FLT3 (Homo sapiens) (P36888 whole entry, the tested form may be a part): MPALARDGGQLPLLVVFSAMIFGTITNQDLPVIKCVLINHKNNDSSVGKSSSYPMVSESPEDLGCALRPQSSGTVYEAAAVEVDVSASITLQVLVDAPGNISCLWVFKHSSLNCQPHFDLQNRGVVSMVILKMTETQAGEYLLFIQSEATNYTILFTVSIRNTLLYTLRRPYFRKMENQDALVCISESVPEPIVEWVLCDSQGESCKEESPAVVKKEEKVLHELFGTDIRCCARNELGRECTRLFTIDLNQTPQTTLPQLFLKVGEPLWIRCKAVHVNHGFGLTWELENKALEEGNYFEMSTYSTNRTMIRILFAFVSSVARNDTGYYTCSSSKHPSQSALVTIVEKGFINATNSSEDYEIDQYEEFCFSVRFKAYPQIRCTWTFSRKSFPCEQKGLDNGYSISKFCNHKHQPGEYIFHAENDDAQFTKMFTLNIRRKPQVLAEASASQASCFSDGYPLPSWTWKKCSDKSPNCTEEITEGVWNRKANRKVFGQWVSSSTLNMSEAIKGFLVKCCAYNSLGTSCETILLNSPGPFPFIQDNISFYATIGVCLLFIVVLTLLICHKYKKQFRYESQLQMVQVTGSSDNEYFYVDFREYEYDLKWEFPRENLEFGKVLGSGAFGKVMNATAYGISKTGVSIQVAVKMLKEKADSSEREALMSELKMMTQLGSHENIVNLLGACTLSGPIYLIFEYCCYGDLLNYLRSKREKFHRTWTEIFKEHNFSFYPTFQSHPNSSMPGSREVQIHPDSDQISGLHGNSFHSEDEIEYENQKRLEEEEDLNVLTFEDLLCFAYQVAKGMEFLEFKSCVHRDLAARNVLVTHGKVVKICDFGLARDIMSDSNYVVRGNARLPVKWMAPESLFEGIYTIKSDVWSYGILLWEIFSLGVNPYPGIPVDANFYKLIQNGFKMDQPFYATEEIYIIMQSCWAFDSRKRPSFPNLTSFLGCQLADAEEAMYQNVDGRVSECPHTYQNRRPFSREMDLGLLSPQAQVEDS

[6] = target: High affinity nerve growth factor receptor (Homo sapiens, UniProt P04629); test: as §1, with “recombinant” for “recombinant full length”, “TRKA catalytic domain (441 to 796 residues)” for “MAPK9”
Sequence of High affinity nerve growth factor receptor (P04629 33-796 limits assumed): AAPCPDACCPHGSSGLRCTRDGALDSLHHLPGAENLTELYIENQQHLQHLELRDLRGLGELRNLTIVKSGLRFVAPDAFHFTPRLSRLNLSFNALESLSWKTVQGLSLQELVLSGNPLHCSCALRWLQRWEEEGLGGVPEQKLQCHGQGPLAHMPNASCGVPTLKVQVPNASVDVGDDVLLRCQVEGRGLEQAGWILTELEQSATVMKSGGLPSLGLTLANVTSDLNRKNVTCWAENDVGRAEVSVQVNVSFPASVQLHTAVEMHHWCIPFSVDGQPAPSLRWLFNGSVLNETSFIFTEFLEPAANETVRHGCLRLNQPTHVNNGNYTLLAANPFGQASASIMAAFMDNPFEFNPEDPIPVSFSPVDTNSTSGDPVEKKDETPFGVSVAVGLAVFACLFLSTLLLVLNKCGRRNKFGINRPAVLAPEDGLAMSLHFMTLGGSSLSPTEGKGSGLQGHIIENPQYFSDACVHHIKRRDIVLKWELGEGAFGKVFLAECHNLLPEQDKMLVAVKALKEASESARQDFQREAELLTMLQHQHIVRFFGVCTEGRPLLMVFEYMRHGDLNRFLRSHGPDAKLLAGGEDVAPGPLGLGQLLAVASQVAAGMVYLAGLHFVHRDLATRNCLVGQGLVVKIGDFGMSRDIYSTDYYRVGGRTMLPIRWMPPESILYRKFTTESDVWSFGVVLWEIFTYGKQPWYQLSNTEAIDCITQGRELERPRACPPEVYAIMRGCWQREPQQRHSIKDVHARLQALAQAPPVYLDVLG

- inhibition [1]: < 50%
- inhibition [2]: < 50%
- IC50 [3]: 7.1 nM
- inhibition [4]: < 50%
- inhibition [5]: > 80%
- inhibition [6]: > 80%
SMILES: Cn1cc(-c2ccc(F)cc2)c(=O)c2c(Nc3ccc(Oc4ccnc(NC(=O)C5CC5)c4)c(F)c3)nccc21
